This assay has as its target T1, TGF-β1-α2M* complex (Homo sapiens, UniProt P01023).
T1 construct: was purified from pooled citrate-treate human plasma; from tissue; host or cells: pooled citrate-treated human plasma
T1 sequence (P01023 24-1474): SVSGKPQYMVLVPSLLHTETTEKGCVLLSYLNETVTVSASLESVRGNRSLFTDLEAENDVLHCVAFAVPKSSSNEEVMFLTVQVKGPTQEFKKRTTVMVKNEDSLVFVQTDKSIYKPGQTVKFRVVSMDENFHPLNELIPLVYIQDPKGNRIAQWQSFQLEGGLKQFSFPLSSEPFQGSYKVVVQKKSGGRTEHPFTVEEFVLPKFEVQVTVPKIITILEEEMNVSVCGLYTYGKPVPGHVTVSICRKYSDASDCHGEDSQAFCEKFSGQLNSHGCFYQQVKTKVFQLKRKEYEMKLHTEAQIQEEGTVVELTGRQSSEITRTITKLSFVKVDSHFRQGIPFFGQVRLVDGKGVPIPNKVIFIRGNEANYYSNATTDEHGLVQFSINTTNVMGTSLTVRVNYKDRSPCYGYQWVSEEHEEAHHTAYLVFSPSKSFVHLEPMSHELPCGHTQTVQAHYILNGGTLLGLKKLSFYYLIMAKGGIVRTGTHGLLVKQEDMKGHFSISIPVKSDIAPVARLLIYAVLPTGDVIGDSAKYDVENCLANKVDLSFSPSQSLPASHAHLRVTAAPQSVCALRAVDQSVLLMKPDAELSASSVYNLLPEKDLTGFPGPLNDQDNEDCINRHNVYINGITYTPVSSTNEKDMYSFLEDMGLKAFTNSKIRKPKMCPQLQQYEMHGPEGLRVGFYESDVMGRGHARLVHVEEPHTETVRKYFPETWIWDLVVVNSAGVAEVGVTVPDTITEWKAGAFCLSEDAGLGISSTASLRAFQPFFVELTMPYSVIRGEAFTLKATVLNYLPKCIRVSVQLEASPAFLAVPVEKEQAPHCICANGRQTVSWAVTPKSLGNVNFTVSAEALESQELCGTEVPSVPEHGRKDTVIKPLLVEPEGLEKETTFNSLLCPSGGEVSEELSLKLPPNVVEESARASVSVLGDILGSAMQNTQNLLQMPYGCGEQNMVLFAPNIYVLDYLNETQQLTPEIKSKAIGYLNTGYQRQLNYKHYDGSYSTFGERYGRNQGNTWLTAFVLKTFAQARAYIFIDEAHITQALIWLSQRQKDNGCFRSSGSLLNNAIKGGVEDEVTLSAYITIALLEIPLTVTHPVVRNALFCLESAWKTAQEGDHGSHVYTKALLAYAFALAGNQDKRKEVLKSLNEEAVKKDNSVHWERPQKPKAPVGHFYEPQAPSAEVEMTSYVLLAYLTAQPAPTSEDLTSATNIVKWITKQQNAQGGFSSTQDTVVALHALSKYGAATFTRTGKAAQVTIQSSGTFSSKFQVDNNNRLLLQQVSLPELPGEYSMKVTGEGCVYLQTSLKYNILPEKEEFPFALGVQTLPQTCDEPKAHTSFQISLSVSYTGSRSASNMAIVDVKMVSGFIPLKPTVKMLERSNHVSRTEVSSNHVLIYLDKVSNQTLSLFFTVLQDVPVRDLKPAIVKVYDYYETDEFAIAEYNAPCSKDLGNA
The experiment in a line: Inhibition of 125I-TGF-β1 and α2M* complex formation (5% non-denaturing PAGE, autoradiography). The format is binding. The method, then: Saturated and unsaturated fatty acids are present in plasma and tissues (25,26). The effects of various concentrations of saturated fatty acids on the formation of complexes between ^125I-TGF ? β1 and ? 2M* were examined. ^125I-TGF- ? 1 (1 nM) was incubated μg/ml) in the presence of various concentrations of n-caprylic acid ([…]), lauric acid (12 carbon atoms), myristic acid (14 carbon atoms), palmitic acid (16 carbon atoms) and stearic acid (18 carbon atoms). After 30 min at room temperature, the reaction mixture was analyzed by 5% non-denaturing PAGE and autoradiography, a standard method form determining complex formation between TGF-β and α2M* (12). […] At 100 μM, it inhibited 20% of the complex formation between TGF ? β1 and α2M*. Esterification consistently abolished the inhibitory activities of the fatty acids.
Complex formation of ^125I-TGF-β and ? 2M*—The reaction mixture contained 10 μg of . α2M*, ˜1 nM of ^125I-TGF- ? 1, ^125I-TGF ? β2 or ^125I-TGF ? acids (dissolved in 100% ethanol) in 0.05 ml of 50 mM HEPES-NaOH buffer, pH 7.4. The final concentration of ethanol in the reaction mixture was 0.5%. These fatty acids and fatty acid derivatives were soluble under the experimental conditions. After 30 min at room temperature, the complex formation of ^125I-TGF- ? and. α2M* was determined by 5% non-denaturing polyacrylamide gel electrophoresis (PAGE) or by 7.5% SDS-PAGE following cross-linking by 0.6 mM DSS. After electrophoresis, the gel was stained with Coomassie blue and analyzed by autoradiography. The ^125I-TGF- ? - ? 2M* complex which co-migrated with free ? 2M* was quantified using a PhosphoImager (Fuji).

Molecules are shown by their SMILES.

On to `CCCCCCCC(=O)O` [n-caprylic acid], for which the “inhibitory activity on complex formation of 125I-TGF-β1 and α2M*” value is on record as “relatively weak inhibitor”. Further, the “inhibition of the complex formation between TGF-β1 and α2M*” value (at 100 μM) stood at 20%.
